In US20180200257A1, “METHODS FOR THE TREATMENT OF INFLAMMATORY DISORDERS” (Galapagos NV, priority 2015, published 2018):

Key:
[1] = tested on: Subjects With Active Crohn's Disease With Evidence of Mucosal Ulceration; experiment: Study 3 - Histopathology score; assay type: in vivo, human; details: 200 mg, LOCF
Description: Double-Blind, Randomized, Placebo-Controlled, Multi-Centre Study to Investigate the Efficacy and Safety of Compound 1 in Subjects With Active Crohn's Disease With Evidence of Mucosal Ulceration.
This is a double-blind, randomized, placebo-controlled, multi-centre Phase 2 study to investigate the efficacy and safety of Compound 1 administered once daily for the treatment of active CD with evidence of mucosal ulceration. The pharmacokinetics (including a PK substudy) and pharmacodynamics of Compound 1 and metabolite in CD will also be characterised.
A total of 180 eligible subjects will be randomized to receive Compound 1 or placebo in addition to their stable background treatment (eg, corticosteroids, aminosalicylates, or CD-related antibiotics). The study will consist of 2 parts, with total treatment duration of 20 weeks. Randomization in Part 1 will be stratified according the subject's previous anti-TNF exposure/response, CRP level at Screening, and oral corticosteroid use at visit Day −1.
After the first 10 weeks of treatment in Part 1, patients will be re-randomized for Part 2 as shown in the diagram below and will be stratified according to the subject's clinical response, previous anti-TNF exposure/response, and oral corticosteroid use at visit Day -1.
Histopathology data is collected from patients biopsy, and evaluated according to the procedure reported in D'haens et al., 1998.

[2] = tested on: subjects with moderately to severely active RA who have an inadequate response to methotrexate (MTX); experiment: Study 2 (monotherapy) - Subject VAS mean changes (ACR patient assessment); assay type: in vivo, human; details: LOCF, 12 weeks results
Protocol: The scale is 100 mm, the decrease in mm is shown. […] (dotted line), 100 mg q.d. (dashed line) or 200 mg q.d. (dark solid line). The results shown in the figures are calculated using Last-Observation-Carried-Forward (LOCF), which handles missing data by assigning the value recorded at the patient's last visit to all subsequent missed visits.
Randomized, double-blind, placebo-controlled, multicenter, phase IIb dose finding study of Compound 1 (dosed as a [Compound 1:HCl:3H2O]) administered for 24 weeks as monotherapy to subjects with moderately to severely active rheumatoid arthritis who have an inadequate response to methotrexate alone
Double-blind, placebo-controlled, monotherapy study in subjects with moderately to severely active RA who have an inadequate response to methotrexate (MTX) (oral or parenteral).
280 subjects randomized to one of 3 doses of Compound 1 (dosed as a [Compound 1:HCl:3H2O]) or to placebo, given once daily (q.d.).
Twelve weeks of treatment with Compound 1 (dosed as a [Compound 1:HCl:3H2O]) at 50 mg, 100 mg, or 200 mg q.d.; or placebo. At Week 12, all subjects on placebo and the subjects on the 50 mg dose who have not achieved 20% improvement in swollen joint count (SJC66) and tender joint count (TJC68) will be assigned to 100 mg q.d. in a blinded fashion and will continue treatment until Week 24. Subjects in the other groups will maintain their randomized treatment until Week 24.
Firstly, the patient is asked to make a vertical mark on a 100 mm Visual Analog Scale (VAS) corresponding to their general health or global disease activity on a touch screen to measure the VAS value, which is used in the formula below.
The American College of Rheumatology (ACR) composite score, which evaluates clinical improvement relative to an initial assessment, is a commonly accepted efficacy end point for clinical trials in patients with rheumatoid arthritis. The ACR score correspond to a percentage improvement in pre-set parameters, and therefore measures the evolution of the disease in a patient. For example, ACR20 denotes at least 20% improvement in tender and swollen joint counts and in three of the following end points: global assessment by the patient, global assessment by the doctor, C reactive protein (CRP), patient's pain Visual Analogue Scale and Health Assessment Questionnaire Score. The number of swollen joints, ESR and CRP correlate with radiographic progression of joint damage, whereas tender joint counts, as well as global assessments by doctors and patients, and patients' reports of pain, are sensitive to change in clinical outcomes. Physical function, as assessed by the Health Assessment Questionnaire Score, is a potent predictor of the risk of disability in rheumatoid arthritis (Felson and American College of Rheumatology Committee to Reevaluate Improvement Criteria, 2007; Felson et al., 1993).

[3] = Anti-TNF experienced non-responders
[4] = baseline corticosteroid use: with steroids
[5] = baseline corticosteroid use: without steroids

Q: O=C(Nc1nc2cccc(-c3ccc(CN4CCS(=O)(=O)CC4)cc3)n2n1)C1CC1 [Compound 1, cyclopropanecarboxylic acid {5-[4-(1,1-dioxo-thiomorpholin-4-ylmethyl)-phenyl]-[1,2,4]triazolo[1,5-a]pyridin-2-yl}-amide] was tested. Which “Overall total score mean, % CFB at week 10” value ([1]; Anti-TNF Naïve) did it give?
A: The value was −14%.

Q: And the “Overall total score mean, CFB at week 10” value ([1]; Anti-TNF Naïve)?
A: Its value is −3.9.

Q: What about the “Overall total score mean, baseline” value ([1]; Anti-TNF Naïve) of the same molecule?
A: The value was 20.3.

Q: What about the “Overall total score mean, week 10” value ([1]; Anti-TNF Naïve) of the same molecule?
A: Its value is 16.1.

Q: What about the “Overall total score mean, % CFB at week 10” value [1, 3] of the same molecule?
A: The value was −7%.

Q: And the “Overall total score mean, CFB at week 10” value [1, 3]?
A: Its value is −3.2.

Q: And the “Overall total score mean, baseline” value [1, 3]?
A: Its value is 25.0.

Q: What about the “Overall total score mean, week 10” value [1, 3] of the same molecule?
A: The value was 21.6.

Q: What about the “Overall total score mean, % CFB at week 10” value [1, 4] of the same molecule?
A: The value was −15%.

Q: What about the “Overall total score mean, CFB at week 10” value [1, 4] of the same molecule?
A: The value was −4.3.

Q: What about the “Overall total score mean, baseline” value [1, 4] of the same molecule?
A: The value was 24.9.

Q: And the “Overall total score mean, week 10” value [1, 4]?
A: Its value is 20.3.

Q: What about the “Overall total score mean, % CFB at week 10” value [1, 5] of the same molecule?
A: Its value is −5%.

Q: And the “Overall total score mean, CFB at week 10” value [1, 5]?
A: Its value is −2.7.

Q: What about the “Overall total score mean, baseline” value [1, 5] of the same molecule?
A: The value was 20.7.

Q: And the “Overall total score mean, week 10” value [1, 5]?
A: The value was 17.9.

Q: And the “Overall total score mean, % CFB at week 10” value ([1]; overall)?
A: The value was −10%.

Q: What about the “Overall total score mean, CFB at week 10” value ([1]; overall) of the same molecule?
A: The value was −3.5.

Q: What about the “Overall total score mean, baseline” value ([1]; overall) of the same molecule?
A: Its value is 22.8.

Q: What about the “Overall total score mean, week 10” value ([1]; overall) of the same molecule?
A: Its value is 19.1.

Q: What about the “Overall total score mean, % CFB at week 10” value ([1]; screening CRP ≤ 10 ml/L) of the same molecule?
A: Its value is −20%.

Q: And the “Overall total score mean, CFB at week 10” value ([1]; screening CRP ≤ 10 ml/L)?
A: Its value is −4.8.

Q: And the “Overall total score mean, baseline” value ([1]; screening CRP ≤ 10 ml/L)?
A: Its value is 21.8.

Q: What about the “Overall total score mean, week 10” value ([1]; screening CRP ≤ 10 ml/L) of the same molecule?
A: Its value is 17.1.

Q: What about the “Overall total score mean, % CFB at week 10” value ([1]; screening CRP ≥ 10 mg/L) of the same molecule?
A: The value was 4%.

Q: And the “Overall total score mean, CFB at week 10” value ([1]; screening CRP ≥ 10 mg/L)?
A: Its value is −1.8.

Q: And the “Overall total score mean, baseline” value ([1]; screening CRP ≥ 10 mg/L)?
A: The value was 24.3.

Q: What about the “Overall total score mean, week 10” value ([1]; screening CRP ≥ 10 mg/L) of the same molecule?
A: The value was 21.8.

Q: And the “Subject VAS mean changes (ACR patient assessment)” value (“Subject VAS mean changes” for short) ([2]; 50 mg q.d., week 0)?
A: Its value is 0.0%.

Q: What about the “Subject VAS mean changes” value ([2]; 50 mg q.d., week 1) of the same molecule?
A: Its value is −12.3%.

Q: And the “Subject VAS mean changes” value ([2]; 50 mg q.d., week 2)?
A: The value was −17.3%.

Q: What about the “Subject VAS mean changes” value ([2]; 50 mg q.d., week 4) of the same molecule?
A: The value was −19.3%.

Q: What about the “Subject VAS mean changes” value ([2]; 50 mg q.d., week 8) of the same molecule?
A: The value was −23.6%.

Q: And the “Subject VAS mean changes” value ([2]; 50 mg q.d., week 12)?
A: Its value is −27.4%.

Q: And the “Subject VAS mean changes” value ([2]; 100 mg q.d., week 0)?
A: The value was 0.0%.

Q: What about the “Subject VAS mean changes” value ([2]; 100 mg q.d., week 1) of the same molecule?
A: Its value is −12.2%.

Q: What about the “Subject VAS mean changes” value ([2]; 100 mg q.d., week 2) of the same molecule?
A: The value was −17.2%.

Q: And the “Subject VAS mean changes” value ([2]; 100 mg q.d., week 4)?
A: The value was −21.3%.

Q: And the “Subject VAS mean changes” value ([2]; 100 mg q.d., week 8)?
A: Its value is −29.2%.

Q: What about the “Subject VAS mean changes” value ([2]; 100 mg q.d., week 12) of the same molecule?
A: The value was −29.8%.

Q: What about the “Subject VAS mean changes” value ([2]; 200 mg q.d., week 0) of the same molecule?
A: Its value is 0.0%.

Q: What about the “Subject VAS mean changes” value ([2]; 200 mg q.d., week 1) of the same molecule?
A: Its value is −14.8%.

Q: What about the “Subject VAS mean changes” value ([2]; 200 mg q.d., week 2) of the same molecule?
A: The value was −19.9%.

Q: What about the “Subject VAS mean changes” value ([2]; 200 mg q.d., week 4) of the same molecule?
A: Its value is −25.0%.

Q: And the “Subject VAS mean changes” value ([2]; 200 mg q.d., week 8)?
A: Its value is −30.3%.

Q: What about the “Subject VAS mean changes” value ([2]; 200 mg q.d., week 12) of the same molecule?
A: The value was −28.8%.
